# According to patent publication US5763404A, “Methods for using LHRH antagonists with low histamine release” (priority 1995, dated 1998):
# Non-standard residues stand in square brackets, D forms with d. Residues, ends and D or L forms follow the SMILES beside them. *: point of attachment. dPhe(4-Cl) = N[C@H](Cc1ccc(Cl)cc1)C(=O)O; d2Nal = N[C@H](Cc1ccc2ccccc2c1)C(=O)O; Lys(iPr) = CC(C)NCCCC[C@H](N)C(=O)O; d3Pal = N[C@H](Cc1cccnc1)C(=O)O; Picolinoyl = O=C(c1ccccn1)*
# Experiments:
# anaesthesized rats [1] = conditions: From Reference 1; cited from earlier work
# anaesthesized rats [2] = assay: wheal test, intradermal injection; assay type: in vivo, rat; set-up: Wheal (wheal response): unit not given here; conditions: Table XIV and text, unit not given
# Method in brief: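 Anaesthetized rats given intradermal injection of 10 ug peptide in 100 ul saline; area of the wheal calculated from its diameter.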
structure (smiles),measurement,setting,value
"CC(=O)N[C@H](Cc1ccc2ccccc2c1)C(=O)N[C@H](Cc1ccc(Cl)cc1)C(=O)N[C@H](Cc1cccnc1)C(=O)N[C@@H](CO)C(=O)N[C@@H](CCCCNC(=O)c1ccccn1)C(=O)N[C@H](CCCCNC(=O)c1ccccn1)C(=O)N[C@@H](CC(C)C)C(=O)N[C@@H](CCCCNC(C)C)C(=O)N1CCC[C@H]1C(=O)N[C@H](C)C(N)=O [IBR 25147, [N-Ac-D-2-Nal^1,D-pClPhe^2,D-3-Pal^3,PicLys^5,D-PicLys^6, ILys^8,D-Ala^10]-LHRH] (Ac-[d2Nal][dPhe(4-Cl)][d3Pal]SK(Picolinoyl)[dK](Picolinoyl)L[Lys(iPr)]P[dA]-NH2)",Wheal Area,anaesthesized rats [1],123 ± 0 mm^2 /10 μg
same,Wheal (wheal response),anaesthesized rats [2],123.0
